Laboratory results reported in ChEMBL document CHEMBL5154944, “Discovery of Aryloxyphenyl-Heptapeptide Hybrids as Potent and Selective Matrix Metalloproteinase-2 Inhibitors for the Treatment of Idiopathic Pulmonary Fibrosis” (J Med Chem, 2022).
Active and inactive are the calls of the source. No cut-off for these calls is given here. Non-standard residues stand in square brackets, D forms with d. Residues, ends and D or L forms follow the SMILES beside them. *: point of attachment. Benzoyl(4-OPh(4-CONH2)) = NC(=O)c1ccc(Oc2ccc(C(=O)*)cc2)cc1; NMeE = CN[C@@H](CCC(=O)O)C(=O)O; β3hP = O=C(O)C[C@@H]1CCCN1; Dab = NCC[C@H](N)C(=O)O; Ava = NCCCCC(=O)O

Experiments:
CYP2C9 = CYP2C9 (Homo sapiens, UniProt P11712); test: Inhibition of CYP2C9 in human liver microsomes at 10 uM using diclofenac as substrate preincubated for 5 mins followed by addition of NADPH measured after 5 mins by LC/MS/MS analysis relative to control; type: ADME, Microsome; details: probe diclofenac, time 10 min
[1] = Solubility of the compound in acetate buffer at pH 4.0 by HPLC analysis; type: physicochemical
HepG2 [2] = test: Cytotoxicity against human HepG2 cells assessed as reduction in cell viability at 10 uM after 48 hrs by CCK8 assay; type: functional
Mus musculus [3] = test: Antifibrotic activity in C57BL/6N mouse model of bleomycin-induced idiopathic pulmonary fibrosis assessed as reduction of total collagen content at 0.03 mg/kg/day, sc via osmotic pumps dosed for 14 days; type: functional, organism-based; details: time 14.0 day
[4] = Free drug concentration in C57BL/6N mouse plasma at 0.03 mg/kg/day, sc via osmotic pumps dosed for 14 days; type: ADME, organism-based; details: in vivo, 336 h, time 14 day
Matrilysin = target: T1, Matrilysin (Homo sapiens, UniProt P09237)
T1 sequence (P09237 whole entry): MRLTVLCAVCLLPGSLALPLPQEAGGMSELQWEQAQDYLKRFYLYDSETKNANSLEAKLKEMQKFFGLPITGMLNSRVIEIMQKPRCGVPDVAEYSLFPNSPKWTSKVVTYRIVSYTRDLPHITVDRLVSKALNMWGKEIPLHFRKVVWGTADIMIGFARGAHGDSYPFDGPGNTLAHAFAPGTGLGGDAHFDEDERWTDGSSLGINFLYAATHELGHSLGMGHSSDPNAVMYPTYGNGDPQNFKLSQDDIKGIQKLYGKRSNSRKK

[5] = target: Matrix metalloproteinase-14 (Homo sapiens, UniProt P50281); test: Inhibition of recombinant human MMP14 using MOCAc-Lys-Pro-Leu-Gly-Leu-A2pr(Dnp)-Ala-Arg-NH2 as substrate preincubated for 15 mins followed by substrate addition by fluroscence based assay
[6] = Solubility of the compound in phosphate buffer at pH 7.4 by HPLC analysis; type: physicochemical
[7] = Metabolic stability in rat hepatocytes assessed as parent compound remaining incubated for 1 hr by LC-MS/MS; type: ADME, cell-based, Hepatocyte; details: read-out: Stability
[8] = Volume of distribution at steady state in fasted Sprague-Dawley rat at 1 mg/kg, iv by LC-MS/MS analysis; type: ADME, organism-based; details: in vivo, read-out: Vdss
Mus musculus [9] = test: Antifibrotic activity in C57BL/6N mouse model of bleomycin-induced idiopathic pulmonary fibrosis assessed as reduction of total collagen content at 0.03 to 1 mg/kg/day, sc via osmotic pumps dosed for 14 days; type: functional, organism-based; details: dose 0.03-1 mg/kg/day, time 14.0 day
CYP3A4 = CYP3A4 (Homo sapiens, UniProt P08684); test: Inhibition of CYP3A4 in human liver microsomes at 10 uM using midazolam as substrate preincubated for 5 mins followed by addition of NADPH measured after 5 mins by LC/MS/MS analysis relative to control; type: ADME, Microsome; details: probe midazolam
physchem [10] = details: buffer, pH 7.4
Stromelysin-1 = Stromelysin-1 (Homo sapiens, UniProt P08254); test: Inhibition of recombinant human MMP3 using MOCAc-Lys-Pro-Leu-Gly-Leu-A2pr(Dnp)-[…] as substrate preincubated for 15 mins followed by substrate addition by fluroscence based assay
CYP2C19 = CYP2C19 (Homo sapiens, UniProt P33261); test: Inhibition of CYP2C19 in human liver microsomes at 10 uM using mephenytoin as substrate preincubated for 5 mins followed by addition of NADPH measured after 10 mins by LC/MS/MS analysis relative to control; type: ADME, Microsome; details: probe mephenytoin, time 15 min
[11] = Chemical stability of the compound in acetate buffer at pH 4.0 assessed as residual rate incubated for 2 weeks by HPLC analysis; type: physicochemical; details: read-out: Stability
[12] = Solubility of the compound in phosphate buffer at pH 9 by HPLC analysis; type: physicochemical
CYP2D6 = CYP2D6 (Homo sapiens, UniProt P10635); test: Inhibition of CYP2D6 in human liver microsomes at 10 uM using bufuralol as substrate preincubated for 5 mins followed by addition of NADPH measured after 10 mins by LC/MS/MS analysis relative to control; type: ADME, Microsome; details: probe bufuralol, time 15 min
[13] = Half life in fasted Sprague-Dawley rat at 1 mg/kg, iv by LC-MS/MS analysis; type: ADME, organism-based; details: in vivo
[14] = Clearance in fasted Sprague-Dawley rat at 1 mg/kg, iv by LC-MS/MS analysis; type: ADME, organism-based; details: in vivo
CYP1A2 = CYP1A2 (Homo sapiens, UniProt P05177); test: Inhibition of CYP1A2 in human liver microsomes at 10 uM using phenacetin as substrate for 5 mins followed by NADPH addition and measured after 10 mins by LC/MS/MS analysis relative to control; type: ADME, Microsome; details: probe phenacetin, time 15 min
[15] = Protein binding in human serum assessed as free fraction at 10 ug/ml incubated for 6 hrs by equilibrium dialysis based LC-MS/MS assay; type: ADME, cell-free; details: at 10 µg/mL
[16] = target: Voltage-gated inwardly rectifying potassium channel KCNH2 (Homo sapiens, UniProt Q12809); test: Inhibition of human ERG expressed in CHO cells by Qpatch-clamp method; type: toxicity, cell-based
[17] = target: Matrix metalloproteinase-9 (Homo sapiens, UniProt P14780)
Interstitial collagenase = target: T2, Interstitial collagenase (Homo sapiens, UniProt P03956); test: Inhibition of recombinant human MMP1 using MOCAc-Lys-Pro-Leu-Gly-Leu-A2pr(Dnp)-Ala-Arg-NH2 as substrate preincubated for 15 mins followed by substrate addition by fluroscence based assay
T2 sequence (P03956 whole entry): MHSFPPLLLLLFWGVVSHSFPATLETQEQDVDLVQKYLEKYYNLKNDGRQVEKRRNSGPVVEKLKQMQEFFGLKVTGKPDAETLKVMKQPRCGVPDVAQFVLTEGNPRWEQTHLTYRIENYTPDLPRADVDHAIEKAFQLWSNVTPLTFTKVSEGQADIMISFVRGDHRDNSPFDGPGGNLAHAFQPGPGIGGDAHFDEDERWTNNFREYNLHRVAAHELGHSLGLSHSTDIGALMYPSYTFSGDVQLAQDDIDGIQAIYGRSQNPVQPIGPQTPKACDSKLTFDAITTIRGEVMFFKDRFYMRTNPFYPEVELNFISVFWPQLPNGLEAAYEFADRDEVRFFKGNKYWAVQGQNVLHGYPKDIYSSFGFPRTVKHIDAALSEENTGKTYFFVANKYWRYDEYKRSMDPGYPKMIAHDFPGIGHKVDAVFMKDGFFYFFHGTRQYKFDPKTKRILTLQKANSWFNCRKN

[18] = Protein binding in mouse serum assessed as free fraction at 10 ug/ml incubated for 6 hrs by equilibrium dialysis based LC-MS/MS assay; type: ADME, cell-free; details: at 10 µg/mL
[19] = Metabolic stability in human serum assessed as parent compound remaining incubated for 6 hrs by LC-MS/MS analysis; type: ADME, cell-free; details: read-out: Stability
physchem [20] = details: phosphate buffer, pH 7.4
[21] = Metabolic stability in human hepatocytes assessed as parent compound remaining measured after 1 hr by LC-MS/MS analysis; type: ADME, cell-based, Hepatocyte; details: read-out: Stability
physchem [22] = details: phosphate buffer, pH 9
Neutrophil collagenase = Neutrophil collagenase (Homo sapiens, UniProt P22894)
HepG2 [23] = test: Cytotoxicity against human HepG2 cells assessed as reduction in cell viability at 50 uM after 48 hrs by CCK8 assay; type: functional

Sequence of CYP2C9 (P11712 whole entry): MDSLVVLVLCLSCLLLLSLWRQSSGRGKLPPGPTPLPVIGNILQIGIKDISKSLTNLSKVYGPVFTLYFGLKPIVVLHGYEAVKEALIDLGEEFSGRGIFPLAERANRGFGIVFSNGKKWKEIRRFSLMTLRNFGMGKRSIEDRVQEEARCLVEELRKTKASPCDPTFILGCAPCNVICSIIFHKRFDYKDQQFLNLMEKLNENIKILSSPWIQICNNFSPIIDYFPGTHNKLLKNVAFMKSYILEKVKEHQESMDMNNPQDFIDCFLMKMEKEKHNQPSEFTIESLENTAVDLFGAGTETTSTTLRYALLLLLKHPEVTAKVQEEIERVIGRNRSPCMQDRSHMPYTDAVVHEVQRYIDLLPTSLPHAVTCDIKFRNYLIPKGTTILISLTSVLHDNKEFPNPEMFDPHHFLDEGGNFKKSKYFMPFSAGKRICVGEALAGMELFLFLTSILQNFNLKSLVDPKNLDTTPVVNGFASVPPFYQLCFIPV
Sequence of Stromelysin-1 (P08254 whole entry): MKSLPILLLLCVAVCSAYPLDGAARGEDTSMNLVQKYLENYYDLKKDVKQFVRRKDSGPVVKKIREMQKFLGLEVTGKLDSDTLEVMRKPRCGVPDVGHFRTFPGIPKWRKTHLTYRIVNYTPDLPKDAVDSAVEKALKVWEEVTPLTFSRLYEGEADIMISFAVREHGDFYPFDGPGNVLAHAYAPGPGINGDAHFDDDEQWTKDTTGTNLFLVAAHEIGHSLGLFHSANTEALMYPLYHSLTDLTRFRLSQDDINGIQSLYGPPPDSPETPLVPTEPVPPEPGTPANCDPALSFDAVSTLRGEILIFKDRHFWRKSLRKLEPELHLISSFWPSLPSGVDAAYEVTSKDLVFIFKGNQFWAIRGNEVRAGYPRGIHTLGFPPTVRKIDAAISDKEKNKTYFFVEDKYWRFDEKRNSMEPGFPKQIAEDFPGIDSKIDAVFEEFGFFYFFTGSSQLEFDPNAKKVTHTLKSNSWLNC
Sequence of Voltage-gated inwardly rectifying potassium channel KCNH2 (Q12809 whole entry): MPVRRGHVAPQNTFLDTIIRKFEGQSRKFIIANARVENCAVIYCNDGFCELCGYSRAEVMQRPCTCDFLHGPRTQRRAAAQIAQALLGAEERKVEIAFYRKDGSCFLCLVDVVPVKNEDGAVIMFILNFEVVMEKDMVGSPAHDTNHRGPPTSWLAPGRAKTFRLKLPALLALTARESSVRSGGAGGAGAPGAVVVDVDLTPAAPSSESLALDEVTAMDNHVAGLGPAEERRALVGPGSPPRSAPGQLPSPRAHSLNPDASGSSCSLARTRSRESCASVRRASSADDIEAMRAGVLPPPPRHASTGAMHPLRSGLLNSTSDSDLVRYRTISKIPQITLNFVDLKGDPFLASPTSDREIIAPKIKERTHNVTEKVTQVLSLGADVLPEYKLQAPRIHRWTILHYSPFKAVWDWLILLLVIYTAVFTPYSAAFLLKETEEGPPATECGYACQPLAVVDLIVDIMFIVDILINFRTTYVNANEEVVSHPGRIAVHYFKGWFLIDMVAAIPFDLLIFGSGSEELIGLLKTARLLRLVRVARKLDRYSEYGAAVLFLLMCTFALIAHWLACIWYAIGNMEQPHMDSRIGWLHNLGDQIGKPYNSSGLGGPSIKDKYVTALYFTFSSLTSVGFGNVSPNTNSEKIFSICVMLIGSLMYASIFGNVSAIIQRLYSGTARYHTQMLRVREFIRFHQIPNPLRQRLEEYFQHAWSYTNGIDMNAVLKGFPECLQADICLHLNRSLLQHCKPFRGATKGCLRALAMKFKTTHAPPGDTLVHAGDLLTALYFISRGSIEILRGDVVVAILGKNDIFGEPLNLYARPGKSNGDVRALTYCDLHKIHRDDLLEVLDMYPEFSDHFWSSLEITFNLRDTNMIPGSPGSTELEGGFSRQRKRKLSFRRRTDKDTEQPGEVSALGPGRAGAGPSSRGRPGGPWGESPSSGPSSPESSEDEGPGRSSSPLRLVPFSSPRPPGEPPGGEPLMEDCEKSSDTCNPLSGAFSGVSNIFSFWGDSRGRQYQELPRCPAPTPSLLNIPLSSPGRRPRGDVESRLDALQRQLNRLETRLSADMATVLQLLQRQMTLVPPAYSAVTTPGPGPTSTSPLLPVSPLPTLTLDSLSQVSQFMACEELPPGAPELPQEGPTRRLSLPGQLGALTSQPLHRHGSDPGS
Sequence of CYP2D6 (P10635 whole entry): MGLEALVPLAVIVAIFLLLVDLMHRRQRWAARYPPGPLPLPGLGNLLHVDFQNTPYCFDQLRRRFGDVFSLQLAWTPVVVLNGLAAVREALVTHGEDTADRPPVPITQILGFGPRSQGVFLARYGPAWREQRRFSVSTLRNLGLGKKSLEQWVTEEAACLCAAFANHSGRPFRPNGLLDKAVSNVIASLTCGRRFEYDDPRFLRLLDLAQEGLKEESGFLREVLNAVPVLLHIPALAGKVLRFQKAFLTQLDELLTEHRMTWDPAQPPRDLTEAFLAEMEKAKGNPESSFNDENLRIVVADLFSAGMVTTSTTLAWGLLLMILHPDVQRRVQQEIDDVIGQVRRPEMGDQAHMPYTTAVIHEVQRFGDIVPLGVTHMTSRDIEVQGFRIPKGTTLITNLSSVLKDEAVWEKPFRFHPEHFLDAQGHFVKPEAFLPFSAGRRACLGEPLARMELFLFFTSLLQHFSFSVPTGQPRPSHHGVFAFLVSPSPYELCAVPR
Sequence of Neutrophil collagenase (P22894 whole entry): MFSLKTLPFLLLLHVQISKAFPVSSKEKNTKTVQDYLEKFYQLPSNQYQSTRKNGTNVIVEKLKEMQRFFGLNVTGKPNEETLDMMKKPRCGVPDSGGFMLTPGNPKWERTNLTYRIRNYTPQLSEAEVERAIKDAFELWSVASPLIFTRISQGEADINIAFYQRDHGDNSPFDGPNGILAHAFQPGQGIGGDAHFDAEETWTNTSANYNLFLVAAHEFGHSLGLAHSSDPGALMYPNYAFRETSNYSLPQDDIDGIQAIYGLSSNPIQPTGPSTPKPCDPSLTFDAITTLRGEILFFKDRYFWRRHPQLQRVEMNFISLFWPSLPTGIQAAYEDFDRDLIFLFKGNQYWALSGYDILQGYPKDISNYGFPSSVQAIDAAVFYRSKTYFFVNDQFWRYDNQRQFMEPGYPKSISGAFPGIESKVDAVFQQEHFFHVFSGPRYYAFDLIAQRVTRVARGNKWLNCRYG
Sequence of Matrix metalloproteinase-9 (P14780 whole entry): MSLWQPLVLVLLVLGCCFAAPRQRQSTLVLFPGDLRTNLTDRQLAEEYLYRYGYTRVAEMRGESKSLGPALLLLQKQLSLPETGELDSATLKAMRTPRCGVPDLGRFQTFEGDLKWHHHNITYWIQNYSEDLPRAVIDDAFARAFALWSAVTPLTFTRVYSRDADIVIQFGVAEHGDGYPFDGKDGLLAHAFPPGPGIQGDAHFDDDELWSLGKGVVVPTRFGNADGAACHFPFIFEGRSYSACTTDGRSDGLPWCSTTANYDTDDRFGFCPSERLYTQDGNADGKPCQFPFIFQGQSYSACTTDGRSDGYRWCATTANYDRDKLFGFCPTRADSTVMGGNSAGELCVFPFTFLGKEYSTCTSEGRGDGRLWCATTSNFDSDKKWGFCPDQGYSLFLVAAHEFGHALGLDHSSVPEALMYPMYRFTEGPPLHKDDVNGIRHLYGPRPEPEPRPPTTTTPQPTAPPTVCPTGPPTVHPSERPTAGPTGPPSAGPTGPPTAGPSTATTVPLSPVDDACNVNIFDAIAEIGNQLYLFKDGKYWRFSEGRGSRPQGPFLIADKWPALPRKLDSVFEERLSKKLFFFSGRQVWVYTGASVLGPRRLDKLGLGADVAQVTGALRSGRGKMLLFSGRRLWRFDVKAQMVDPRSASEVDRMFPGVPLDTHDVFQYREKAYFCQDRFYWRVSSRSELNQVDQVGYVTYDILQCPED
Sequence of CYP2C19 (P33261 whole entry): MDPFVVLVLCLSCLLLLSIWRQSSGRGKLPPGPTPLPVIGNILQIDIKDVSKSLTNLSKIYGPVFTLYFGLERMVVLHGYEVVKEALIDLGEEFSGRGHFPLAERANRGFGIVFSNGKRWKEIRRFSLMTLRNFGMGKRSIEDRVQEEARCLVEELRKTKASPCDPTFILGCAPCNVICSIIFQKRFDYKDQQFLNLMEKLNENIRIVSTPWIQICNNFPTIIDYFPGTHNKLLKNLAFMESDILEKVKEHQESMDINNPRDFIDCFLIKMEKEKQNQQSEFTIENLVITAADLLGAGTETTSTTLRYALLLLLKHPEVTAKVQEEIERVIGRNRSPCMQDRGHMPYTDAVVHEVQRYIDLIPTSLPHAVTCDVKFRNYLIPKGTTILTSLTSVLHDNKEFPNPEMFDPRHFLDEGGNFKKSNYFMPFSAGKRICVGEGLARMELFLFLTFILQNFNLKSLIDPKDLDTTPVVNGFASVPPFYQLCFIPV
Sequence of CYP3A4 (P08684 whole entry): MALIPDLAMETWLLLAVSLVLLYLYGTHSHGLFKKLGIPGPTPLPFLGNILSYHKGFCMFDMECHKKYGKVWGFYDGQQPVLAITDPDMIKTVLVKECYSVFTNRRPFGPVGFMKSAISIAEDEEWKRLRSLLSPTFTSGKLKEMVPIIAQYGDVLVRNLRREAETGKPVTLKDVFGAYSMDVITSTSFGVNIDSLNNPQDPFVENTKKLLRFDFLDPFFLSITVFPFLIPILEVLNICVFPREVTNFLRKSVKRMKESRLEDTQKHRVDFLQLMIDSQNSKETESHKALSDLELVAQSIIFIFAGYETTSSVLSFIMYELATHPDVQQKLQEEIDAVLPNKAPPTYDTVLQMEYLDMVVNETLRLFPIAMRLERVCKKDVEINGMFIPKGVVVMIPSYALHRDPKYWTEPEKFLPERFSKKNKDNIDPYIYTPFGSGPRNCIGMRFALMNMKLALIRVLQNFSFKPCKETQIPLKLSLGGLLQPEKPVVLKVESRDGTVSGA

CC(C)C[C@H](NC(=O)[C@H](CCN)NC(=O)[C@H](CC(=O)O)NC(=O)[C@H](CCC(=O)O)NC(=O)CCCCNC(=O)c1ccc(Oc2ccc(C(N)=O)cc2)cc1)C(=O)N(C)[C@@H](CCC(=O)O)C(=O)N1CCC[C@H]1CC(N)=O ({Benzoyl(4-OPh(4-CONH2))-Ava}-ED[Dab]L[NMeE][β3hP]-NH2)
inhibition at 5 min, 10 µM (CYP2C9): 1.6%
solubility [1]: > 18.2 mg/mL
Activity (HepG2 [2]): 1.1%
Activity (Mus musculus [3]): Active
Cp(f) [4]: 0.48 nM
IC50 (Matrilysin): > 10 µM
IC50 [5]: 2.22 µM
solubility [6]: > 24.2 mg/mL
remaining at 1 h, 1 µM [7]: 98.2%
Vd [8]: 0.233 L/kg
Activity (Mus musculus [9]): Active
inhibition at 5 min, 10 µM (CYP3A4): -2.4%
logD (physchem [10]): -0.21
IC50 (Stromelysin-1): > 10 µM
inhibition at 10 min, 10 µM (CYP2C19): -9.1%
remaining at 336 h [11]: 88%
solubility [12]: > 167 mg/mL
inhibition at 10 min, 10 µM (CYP2D6): -2.5%
half-life [13]: 14 min
clearance [14]: 11.7 mL/min/kg
inhibition at […], 10 µM (CYP1A2): -4.2%
fraction unbound at 6 h, 10 ug/ml [15]: 0.552
IC50 [16]: > 100 µM
IC50 [17]: > 8.51 µM
IC50 (Interstitial collagenase): > 10 µM
fraction unbound at 6 h, 10 ug/ml [18]: 0.518
remaining at 6 h [19]: 110%
remaining at 336 h (physchem [20]): 95.1%
remaining at 1 h [21]: 101%
remaining at 336 h (physchem [22]): 95.4%
IC50 (Neutrophil collagenase): 3.72 µM
Activity (HepG2 [23]): -0.9%
